Laboratory results taken from patent US20240065971A1, “METHODS OF TREATING ABC-DLBCL USING INHIBITORS OF BRUTONS TYROSINE KINASE” (Pharmacyclics LLC, priority 2010, published 2024).

Columns and labels:
OCI-Ly10 cells [1] = assay: Dose response of p-ERK by Western blotting; format: cell-based
OCI-Ly10 cells [2] = assay: Constitutive IL-10 secretion by ELISA; format: cell-based
OCI-Ly10 cells [3] = assay: IgM/IgG stimulated calcium flux (Fura-2AM); format: cell-based; details: OCI-Ly10, inhibitor added 5 min before stimulation
Description: (§1) The kinetics of calcium flux were quantitated by optical spectroscopy following standard procedures.

OCI-Ly3 cells [4] = assay: IgM/IgG stimulated calcium flux (Fura-2AM); format: cell-based; details: OCI-Ly3, inhibitor added 5 min before stimulation
Description: as §1

OCI-Ly10 cells [5] = assay: RT-PCR (Taqman) of NF-kB target genes; format: cell-based; details: 100 nM, 4 hrs
[6] = tested on: OCI-Ly10 tumor xenografts; assay: OCI-Ly10 tumor xenografts in female SCID mice; format: in vivo; details: once a day 3 mg/kg or 12 mg/kg, vs vehicle
Description: Female SCID mice were implanted with 10 million […] cells in Matrigel and tumors were allowed to reach 100 mm^3.

OCI-Ly10 cells [7] = details: 10 nM, up to 4 hours
OCI-Ly3 cells [8] = details: 10 nM, up to 4 hours

Row | SMILES | concentration that decreases p-ERK (OCI-Ly10 cells [1]) | Constitutive IL-10 secretion (OCI-Ly10 cells [2]) | calcium flux after stimulation (OCI-Ly10 cells [3]) | calcium flux after stimulation (OCI-Ly3 cells [4]) | Myc expression (OCI-Ly10 cells [5]) | tumor growth [6] | Phosphorylation of AKT (OCI-Ly10 cells [7]) | Phosphorylation of ERK (OCI-Ly10 cells [7]) | Phosphorylation of AKT (OCI-Ly3 cells [8])
1 | CC[C@H](Nc1ncnc2[nH]cnc12)c1nc2cccc(F)c2c(=O)n1-c1ccccc1 [CAL-101, reference compound] | 100 nM | – | – | – | – | – | – | – | –
2 | C=CC(=O)N1CCC[C@@H](n2nc(-c3ccc(Oc4ccccc4)cc3)c3c(N)ncnc32)C1 [Btk inhibitor] | 1 nM | inhibited | dose-dependent reduction | dose-dependent reduction | maximally downregulated | dose-dependent inhibition | rapidly abolished | rapidly abolished | inhibited
